Measured values from patent US8647673B2, “Nanoparticles for imaging and treating chlamydial infection” (Wayne State University, priority 2007, dated 2014).
Values after ≈ are worked out from the molar mass of the structure shown. Read-outs that look alike come from different tables or passages of the source.

Test system: C. trachomatis (serovar K)
Experiment: Microsusceptibility: chlamydial inclusion counts in infected McCoy cells
Assay type: cell-based
Settings: for change in MIC50 with length of treatment: 24 vs 48 hrs incubation, treated immediately following infection; for MIC50: Chlamydia trachomatis; for sensitivity (decrease in inclusion number with increasing dose): drug added 24 or 48 hours post infection, 24 hours in presence of drug
Protocol: FIG. 19. […] McCoy cells were infected with C trachomatis serovar K at MOI=1. […] Drugs were administered either encapsulated in nanoparticles (top panel) or dissolved in growth medium (bottom panel). Chlamydial viability was determined by counting the number of inclusions/well.
Cells and growth of Chlamydia. McCoy cells were seeded onto 96-well microtitre plates at a concentration of 2×10^5 cells per well and allowed to adhere overnight at 37° C. and 5% CO2 in Eagles MEM supplemented with 10% FBS and […] Glutamine. The following day, the cells were inoculated with C. trachomatis (UW-31, serovar K) at 10^4 IFU/well and centrifuged at 2500 rpm for 1 hr at room temperature, followed by incubation at 37° C. for 1 hr. The inoculum was then aspirated and replaced with the appropriate two fold dilution of free drug or encapsulated nanoparticles prepared in antibiotic-free growth media containing 0.06% glucose and 1 μg/ml cyclohexamide. The cells were incubated in the presence of drug for 24 or 48 hrs post infection and then fixed with 100% MeOH. Chlamydial inclusions were detected by immunofluorescence using BioRad Pathfinder® according to the manufacturer's instructions and the plates subsequently stored protected from light at 4° C.
McCoy cells were seeded onto 96-well microtiter plates and then infected the next day with 10^4 IFU/well C. trachomatis (serovar K).
McCoy cells were seeded onto 96-well microtiter plates and then infected the next day with 10^4 IFU/well C. trachomatis (serovar K). […] The mean inclusion number was plotted as a function of concentration.
McCoy cells (2×10^5/well) were seeded onto 96-well microtitre plates and then infected the next day with 10^4 IFU/well C. trachomatis (serovar K). […] The cells were incubated for 24 hours in the presence of drug and then fixed. Based on previous experiments we refined the concentrations ranges for each of the two free drugs and encapsulated nanoparticles.
McCoy cells (2×10^5/well) were seeded onto 96-well microtitre plates and then infected the next day with 10^4 IFU/well C. trachomatis (serovar K). […] The cells were incubated for 24 hours in the presence of drug and then fixed. […] We, therefore, extended the concentration ranges for the two drugs.
McCoy cells (2×10^5/well) were seeded onto 96-well microtitre plates and then infected the next day with 10^4 IFU/well C. trachomatis (serovar K). […] The cells were incubated for 24 hours or 48 hours in the presence of drug and then fixed.
Free and nanoparticle-encapsulated antibiotics added at either t0 (time of infection) or after 24 hr of infection (t24), were compared along with blank nanoparticles as controls.

[1] = 24 h, added immediately following infection, 24 hours in the presence of drug (Example 9), read-out: MIC50
[2] = treated individually, MOI=1, drug added at overlay, nanoparticles not conjugated to folic acid (Example 16), read-out: MIC50

Row | SMILES | change in MIC50 with length of treatment | MIC50 [1] [µg/mL] | MIC50 (in the presence of 0.004 μg/ml rifampin (Example 16), read-out: MIC50 of azithromycin) [µg/mL] | MIC50 [2] [µg/mL] | sensitivity (decrease in inclusion number with increasing dose) | MIC50 (24 h, drug added at 24 hpi and left on for 24 hours, read-out: MIC50) [µg/mL] | MIC50 (read-out: MIC50 of rifampin, in the presence of 0.016 μg/ml azithromycin (Example 16)) [µg/mL]
1 | CC[C@H]1OC(=O)[C@H](C)[C@@H](O[C@H]2C[C@@](C)(OC)[C@@H](O)[C@H](C)O2)[C@H](C)[C@@H](O[C@@H]2O[C@H](C)C[C@H](N(C)C)[C@H]2O)[C@](C)(O)C[C@@H](C)CN(C)[C@H](C)[C@@H](O)[C@]1(C)O [azithromycin] | no significant change in MIC50 | 0.04 | 0.016 | 0.032 (≈ 0.0427 µM) | marked insensitivity |  | 
2 | CO[C@H]1/C=C/O[C@@]2(C)Oc3c(C)c(O)c4c(O)c(c(/C=N/N5CCN(C)CC5)c(O)c4c3C2=O)NC(=O)/C(C)=C\C=C\[C@H](C)[C@H](O)[C@@H](C)[C@@H](O)[C@@H](C)[C@H](OC(C)=O)[C@@H]1C [rifampin] | no significant change in MIC50 | 0.005 |  | 0.008 (≈ 0.00972 µM) | marked insensitivity | > 0.08 | 0.002
